Data published in ChEMBL document CHEMBL6121040, “Synthesis and biological assessment of BUB1B inhibitors for the treatment of clear cell renal cell carcinoma” (Eur J Med Chem, 2025).

test system: CAKI-1; experiment: Cytotoxicity against human CAKI-1 cells assessed as cell viability at 10 uM incubated for 1 day by MTT assay relative to control; format: functional; conditions: CAKI-1, 24 h, read-out: Activity

With `C=CC(=O)N1CCN(c2ccc(Nc3ncc(C)c(Nc4cccc(S(=O)(=O)NC(C)(C)C)c4)n3)cc2)CC1` as the compound, how does the viability at 10 µM read?
The viability at 10 µM was 44.6%.

For `Cc1cnc(Nc2ccc(N3CCN(S(=O)(=O)c4ccccc4)CC3)cc2)nc1Nc1cccc(S(=O)(=O)NC(C)(C)C)c1`, which viability at 10 µM is on record?
The viability at 10 µM was 83.8%.

How did the viability at 10 µM turn out when `Cc1cnc(Nc2cccc(S(=O)(=O)NC(C)(C)C)c2)nc1Nc1cccc(S(=O)(=O)NC(C)(C)C)c1` was run?
The viability at 10 µM was 64.7%.

How did the viability at 10 µM turn out when `COc1cc(Nc2ncc(C)c(Nc3cccc(S(=O)(=O)NC(C)(C)C)c3)n2)cc(OC)c1` was run?
Its viability at 10 µM is 46.5%.

For `Cc1cnc(Nc2ccccc2P(C)(C)=O)nc1Nc1cccc(S(=O)(=O)NC(C)(C)C)c1`, which viability at 10 µM is on record?
The viability at 10 µM was 84.4%.

How did the viability at 10 µM turn out when `COc1ccc(S(=O)(=O)N2CCN(c3ccc(Nc4ncc(C)c(Nc5cccc(S(=O)(=O)NC(C)(C)C)c5)n4)cc3)CC2)cc1OC` was run?
The viability at 10 µM was 73.8%.

`COc1cc(Nc2ncc(C)c(Nc3cccc(S(=O)(=O)N4CCOCC4)c3)n2)cc(OC)c1` was tested. Which viability at 10 µM did it give?
Its viability at 10 µM is 45.4%.

Which viability at 10 µM does the source give for `Cc1cnc(Nc2ccc(N3CCN(C(=O)Nc4ccccc4F)CC3)cc2)nc1Nc1cccc(S(=O)(=O)NC(C)(C)C)c1` here?
The viability at 10 µM was 46.7%.

Which viability at 10 µM does the source give for `Cc1cnc(Nc2cccc(S(=O)(=O)N3CCOCC3)c2)nc1Nc1cccc(S(=O)(=O)NC(C)(C)C)c1` here?
Its viability at 10 µM is 60.6%.

Which viability at 10 µM does the source give for `COc1cc(Nc2ncc(C)c(Nc3cccc(S(=O)(=O)NC4CCC4)c3)n2)cc(OC)c1OC` here?
The viability at 10 µM was 33%.

`Cc1ccc(Nc2ncc(C)c(Nc3cccc(S(=O)(=O)NC(C)(C)C)c3)n2)cc1S(N)(=O)=O` was tested. Which viability at 10 µM did it give?
The viability at 10 µM was 43.2%.

With `COc1ccc(Nc2ncc(C)c(Nc3cccc(S(=O)(=O)NC(C)(C)C)c3)n2)cc1OC` as the compound, how does the viability at 10 µM read?
The viability at 10 µM was 36.6%.

For `COc1cc(Nc2ncc(C)c(Nc3cccc(S(=O)(=O)NC4CCC4)c3)n2)cc(OC)c1`, which viability at 10 µM is on record?
Its viability at 10 µM is 42%.

`Cc1cc(NS(=O)(=O)c2ccc(Nc3ncc(C)c(Nc4cccc(S(=O)(=O)NC(C)(C)C)c4)n3)cc2)no1` was tested. Which viability at 10 µM did it give?
The viability at 10 µM was 95.5%.

`Cc1cnc(Nc2ccc(N3CCN(C(=O)Nc4ccccc4C(F)(F)F)CC3)cc2)nc1Nc1cccc(S(=O)(=O)NC(C)(C)C)c1` was tested. Which viability at 10 µM did it give?
The viability at 10 µM was 39.7%.

For `Cc1ccc(Nc2nc(Nc3ccc(N4CCN(C)CC4)cc3)ncc2C)cc1S(N)(=O)=O`, which viability at 10 µM is on record?
The viability at 10 µM was 34.7%.

With `COc1ncnc(NS(=O)(=O)c2ccc(Nc3ncc(C)c(Nc4cccc(S(=O)(=O)NC(C)(C)C)c4)n3)cc2)c1OC` as the compound, how does the viability at 10 µM read?
Its viability at 10 µM is 104%.

Which viability at 10 µM does the source give for `COc1ccc(Nc2ncc(C)c(Nc3cccc(S(=O)(=O)NC(C)(C)C)c3)n2)c(OC)c1` here?
Its viability at 10 µM is 66.5%.

How did the viability at 10 µM turn out when `Cc1cnc(Nc2ccc(N3CCN(C)CC3)cc2)nc1Nc1cccc(S(=O)(=O)NC(C)(C)C)c1C` was run?
Its viability at 10 µM is 52.1%.

Which viability at 10 µM does the source give for `CNC(=O)N1CCN(c2ccc(Nc3ncc(C)c(Nc4cccc(S(=O)(=O)NC(C)(C)C)c4)n3)cc2)CC1` here?
Its viability at 10 µM is 40.6%.

test system: CAKI-1; experiment: Cytotoxicity against human CAKI-1 cells assessed as reduction in cell viability incubated for 1 day by MTT assay; format: functional, cell-based; conditions: CAKI-1, 24 h

For `COc1cc(Nc2ncc(C)c(Nc3cccc(S(=O)(=O)NC(C)(C)C)c3)n2)cc(OC)c1`, which IC50 is on record?
The IC50 was 2790 nM.
